Legend:
Human CCR5 = molecular target: T1, Human CCR5 (Homo sapiens, UniProt P51681); assay: CCR5 membrane binding assay ([I-125]MIP-1α); conditions: table does not name the assay; b437 says 'in these assays'
T1 construct: expressed in transfected cells; host or cells: CHO K1
Method: Human CCR5 is used to generate stable transfectants in CHO K1 cells. Membranes prepared from these CCR5 transfectants are used in a radioligand binding assay using 125-1-MIP-1α as a ligand and the compounds of formula I are tested for inhibitory activity. The data are reported as IC50, i.e. the concentration of compound required to achieve 50% inhibition of [I-125]MIP-1α binding. In this assay, compounds of formula I have an IC50 between 0.004 and 10 μM.

hCCR2b = molecular target: T2, hCCR2b (Homo sapiens, UniProt P41597); assay: CCR2 membrane binding assay (SPA, [125I] MCP-1); conditions: table does not name the assay; b437 says 'in these assays'
T2 construct: expressed in transfected cells; host or cells: CHO-dukX
T2 sequence (P41597 1-360 isoform P41597-2): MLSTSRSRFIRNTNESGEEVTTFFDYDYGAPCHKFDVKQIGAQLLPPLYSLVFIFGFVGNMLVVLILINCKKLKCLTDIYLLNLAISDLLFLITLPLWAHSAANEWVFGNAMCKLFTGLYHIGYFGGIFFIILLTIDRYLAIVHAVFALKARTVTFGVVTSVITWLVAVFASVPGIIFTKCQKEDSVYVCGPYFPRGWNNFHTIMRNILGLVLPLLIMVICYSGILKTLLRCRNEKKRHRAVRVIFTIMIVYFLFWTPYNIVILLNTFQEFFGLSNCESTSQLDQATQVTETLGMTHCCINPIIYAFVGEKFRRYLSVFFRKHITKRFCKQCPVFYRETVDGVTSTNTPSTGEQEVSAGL
Method: Transfected CHO-dukX cells stably expressing the hCCR2b gene are grown in MEM alpha medium to a confluency of between 70 and 80%. After discarding the medium, 30 ml ice-cold physiological buffer solution containing 1 mM EDTA are added and the cells removed from the plate using a scraper. The cell suspension is centrifuged at 800 g for 10′ at 4° C. and the cell pellet resuspended in buffer. Cell lysis is done using a Polytron PTI300D instrument at 28 000 RPM for 2 times 30 seconds on ice. Membranes are collected by centrifugation at 42 000 g for 20 minutes at 4° C. and subjected to a second round of lysis (Polytron, 28 000 RPM, 2×30 seconds on ice). Following centrifugation at 42 000 g for 20 minutes at 4° C. the membranes are resuspended in buffer at a protein concentration of 2 mg/ml and stored at −80° C. Ten millimolar stock solutions of test compounds in 100% DMSO are prepared. Test compounds are further diluted in buffer to yield the four-fold concentrated solutions for the tests that assayed a range of 10^−10 to 10^−5 M. The SPA assay is performed in a final volume of 200 μl per well in 96 well plates. The components are added per well in the following order: • 50 μl Buffer (+/−test compound) • 50 μl Wheat germ agglutinin-SPA beads (1.25 mg/well) in buffer • 50 μl CCR2B membrane suspension diluted with buffer to 0.04 mg/ml (2 μg/well), alternatively 50,000 cells per well • 50 μl [^125I] MCP-1 in buffer (60 pM final concentration, 2.5 μCi/plate)
After addition of all components the plate is sealed and incubated for 90 minutes at room temperature with constant shaking. Following incubation the plate is centrifuged at 1000 RPM in a Sorvall RC3B centrifuge for 4 minutes at room temperature and counted for 3 minutes per well in a TOP COUNT instrument (Packard). The quench-corrected counts are used for the analysis of radioligand binding.

T1 sequence (P51681 whole entry): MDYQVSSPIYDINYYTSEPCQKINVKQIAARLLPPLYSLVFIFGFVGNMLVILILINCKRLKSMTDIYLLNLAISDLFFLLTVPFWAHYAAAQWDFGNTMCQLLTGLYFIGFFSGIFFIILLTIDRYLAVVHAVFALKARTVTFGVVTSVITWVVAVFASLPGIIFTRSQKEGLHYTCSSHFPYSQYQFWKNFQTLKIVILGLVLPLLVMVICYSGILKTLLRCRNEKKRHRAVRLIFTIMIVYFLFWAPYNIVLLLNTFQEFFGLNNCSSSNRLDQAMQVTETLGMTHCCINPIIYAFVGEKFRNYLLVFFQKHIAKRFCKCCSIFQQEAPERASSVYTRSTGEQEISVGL

Row | IC50 (Human CCR5) | IC50 (hCCR2b) | SMILES
1 | 11.9 nM | 13.8 nM | C[C@H]1CN(CC[C@]2(O)CC[C@@H](NC(=O)c3cc4c(OCc5coc6c5C(=O)CC(C)(C)C6)cccc4[nH]3)CC2)CC[C@@H]1O [Example 7, 4-(6,6-Dimethyl-4-oxo-4,5,6,7-tetrahydro-benzofuran-3-ylmethoxy)-1H-indole-2-carboxylic acid {4-hydroxy-4-[2-((3S,4S)-4-hydroxy-3-methyl-piperidin-1-yl)-ethyl]-cyclohexyl}-amide]
2 | 3.2 nM | 0.9 nM | CCOCCCOc1ccc2c(COc3cccc4[nH]c(C(=O)N[C@H]5CC[C@](O)(CCN6CC[C@H](O)[C@@H](C)C6)CC5)cc34)coc2c1 [Example 20, 4-[6-(3-Ethoxy-propoxy)-benzofuran-3-ylmethoxy]-1H-indole-2-carboxylic acid {4-hydroxy-4-[2-((3S,4S)-4-hydroxy-3-methyl-piperidin-1-yl)-ethyl]-cyclohexyl}-amide]
3 | 12.1 nM | 12.5 nM | COc1cccc2c(COc3cccc4[nH]c(C(=O)N[C@H]5CC[C@](O)(CCN6CC[C@H](O)[C@@H](C)C6)CC5)cc34)coc12 [Example 23, 4-(7-Methoxy-benzofuran-3-ylmethoxy)-1H-indole-2-carboxylic acid {4-hydroxy-4-[2-((3S,4S)-4-hydroxy-3-methyl-piperidin-1-yl)-ethyl]-cyclohexyl}-amide]
4 | 13.2 nM | 12 nM | C[C@H]1CN(CC[C@]2(O)CC[C@@H](NC(=O)c3cc4c(OCC5CCC5)cccc4[nH]3)CC2)CC[C@@H]1O [Example 1, 4-Cyclobutylmethoxy-1H-indole-2-carboxylic acid {4-hydroxy-4-[2-((3S,4S)-4-hydroxy-3-methyl-piperidin-1-yl)-ethyl]-cyclohexyl}-amide]
5 | 58.5 nM | 10.8 nM | C[C@H]1CN(CC[C@]2(O)CC[C@@H](NC(=O)c3cc4c(OC[C@@H]5COc6ccccc65)cccc4[nH]3)CC2)CC[C@@H]1O [Example 8, 4-[(S)-1-(2,3-Dihydro-benzofuran-3-yl)methoxy]-1H-indole-2-carboxylic acid {4-hydroxy-4-[2-((3S,4S)-4-hydroxy-3-methyl-piperidin-1-yl)-ethyl]-cyclohexyl}-amide]
6 | – | 7.4 nM | C[C@H]1CN(CC[C@]2(O)CC[C@@H](NC(=O)c3cc4c(OCc5coc6cc(F)ccc56)cccc4[nH]3)CC2)CC[C@@H]1O [Example 22, 4-(6-Fluoro-benzofuran-3-ylmethoxy)-1H-indole-2-carboxylic acid {4-hydroxy-4-[2-((3S,4S)-4-hydroxy-3-methyl-piperidin-1-yl)-ethyl]-cyclohexyl}-amide]
7 | – | 0.8 nM | COCC(C)Oc1ccc2c(COc3cccc4[nH]c(C(=O)N[C@H]5CC[C@](O)(CCN6CC[C@H](O)[C@@H](C)C6)CC5)cc34)coc2c1 (mixture of isomers) [Example 17, 4-[6-((RS)-2-Methoxy-1-methyl-ethoxy)-benzofuran-3-ylmethoxy]-1H-indole-2-carboxylic acid {4-hydroxy-4-[2-((3S,4S)-4-hydroxy-3-methyl-piperidin-1-yl)-ethyl]-cyclohexyl}-amide]
8 | 27 nM | 24.3 nM | C[C@H]1CN(CC[C@]2(O)CC[C@@H](NC(=O)c3cc4c(OCc5coc6c5C(=O)CCC6)cccc4[nH]3)CC2)CC[C@@H]1O [Example 6, 4-(4-Oxo-4,5,6,7-tetrahydro-benzofuran-3-ylmethoxy)-1H-indole-2-carboxylic acid {4-hydroxy-4-[2-((3S,4S)-4-hydroxy-3-methyl-piperidin-1-yl)-ethyl]-cyclohexyl}-amide]
9 | 13.8 nM | – | C[C@H]1CN(CC[C@]2(O)CC[C@@H](NC(=O)c3cc4c(OCc5ccoc5)cccc4[nH]3)CC2)CC[C@@H]1O [Example 3, 4-(Furan-3-ylmethoxy)-1H-indole-2-carboxylic acid {4-hydroxy-4-[2-((3S,4S)-4-hydroxy-3-methyl-piperidin-1-yl)-ethyl]-cyclohexyl}-amide]
10 | 0.5 nM | 0.2 nM | C[C@H]1CN(CC[C@]2(O)CC[C@@H](NC(=O)c3cc4c(OCc5coc6ccc(Cl)cc56)cccc4[nH]3)CC2)CC[C@@H]1O [Example 12, 4-(5-Chloro-benzofuran-3-ylmethoxy)-1H-indole-2-carboxylic acid {4-hydroxy-4-[2-((3S,4S)-4-hydroxy-3-methyl-piperidin-1-yl)-ethyl]-cyclohexyl}-amide]
11 | – | 2.3 nM | C[C@H]1CN(CC[C@]2(O)CC[C@@H](NC(=O)c3cc4c(OCc5coc6cc(F)cc(F)c56)cccc4[nH]3)CC2)CC[C@@H]1O [Example 11, 4-(4,6-Difluoro-benzofuran-3-ylmethoxy)-1H-indole-2-carboxylic acid {4-hydroxy-4-[2-((3S,4S)-4-hydroxy-3-methyl-piperidin-1-yl)-ethyl]-cyclohexyl}-amide]
12 | – | 0.7 nM | COCCCOc1ccc2c(COc3cccc4[nH]c(C(=O)N[C@H]5CC[C@](O)(CCN6CC[C@H](O)[C@@H](C)C6)CC5)cc34)coc2c1 [Example 19, 4-[6-(3-Methoxy-propoxy)-benzofuran-3-ylmethoxy]-1H-indole-2-carboxylic acid {4-hydroxy-4-[2-((3S,4S)-4-hydroxy-3-methyl-piperidin-1-yl)-ethyl]-cyclohexyl}-amide]
13 | 9 nM | 1.6 nM | C[C@H]1CN(CC[C@]2(O)CC[C@@H](NC(=O)c3cc4c(OCc5coc6cc(O[C@H]7CCOC7)ccc56)cccc4[nH]3)CC2)CC[C@@H]1O [Example 21, 4-{6-[(S)-(Tetrahydro-furan-3-yl)oxy]-benzofuran-3-ylmethoxy}-1H-indole-2-carboxylic acid {4-hydroxy-4-[2-((3S,4S)-4-hydroxy-3-methyl-piperidin-1-yl)-ethyl]-cyclohexyl}-amideamide]
14 | 10.6 nM | 1.5 nM | COc1cccc2occ(COc3cccc4[nH]c(C(=O)N[C@H]5CC[C@](O)(CCN6CC[C@H](O)[C@@H](C)C6)CC5)cc34)c12 [Example 10, 4-(4-Methoxy-benzofuran-3-ylmethoxy)-1H-indole-2-carboxylic acid {4-hydroxy-4-[2-((3S,4S)-4-hydroxy-3-methyl-piperidin-1-yl)-ethyl]-cyclohexyl}-amide]
15 | 5.8 nM | 2.7 nM | COc1ccc2c(COc3cccc4[nH]c(C(=O)N[C@H]5CC[C@](O)(CCN6CC[C@H](O)[C@@H](C)C6)CC5)cc34)coc2c1 [Example 13, 4-(6-Methoxy-benzofuran-3-ylmethoxy)-1H-indole-2-carboxylic acid {4-hydroxy-4-[2-((3S,4S)-4-hydroxy-3-methyl-piperidin-1-yl)-ethyl]-cyclohexyl}-amide]
